SMILES strings stand for the structures. Like-named read-outs stand apart in the source and are kept apart here.

The test system of assay [1] is A549 cell lines (lung cancer cell lines). In words: Oxygen Consumption Rate (OCR) of cells, corrected for cell viability (Cyquant). In kind it is cell-based. The following applies: Homo sapiens, read-out: OCR IC50. As to the method:
The compounds synthesized by the methods disclosed in the Examples of the present invention have been measured on oxygen consumption rate and extracellular oxidation by the methods disclosed in the Test Examples below.
3×10^3 cells from A549 cell lines (purchased from ATCC-American Type Culture Collection), which are lung cancer cell lines, were placed on XF96 cell culture plates using RPMI1640 medium, and cultured at 37° C. in a 5% CO2 condition for 16 hours or more for attachment.
After 16 hours, the cells were treated with the drug at six different concentrations between 0 μM and 20 μM. After 24 hours, the existing medium was removed, and XF assay medium (15 mM D-Glucose, 15 mM sodium pyruvate, 4 mM L-Glutamine, pH 7.4) was added. The cells were retreated with the drug, and additionally cultured in Prep station at 37° C. in a non-CO2 condition for 1 hour. During the one-hour culture in the Prep station, a sensor cartridge was placed and calibrated for 20 minutes, and a plate with cells was placed to analyze the OCR. After the analysis was completed, XF96 plate was measured for cell viability using Cyquant assay, which measures the amount of intracellular DNA, in the following method. XF assay medium and the drug were removed, and the cells were placed in a cryogenic refrigerator (−80° C.) for at least 4 hours to be frozen. After the plate was made to be at room temperature, a solution where a lysis buffer and fluorescent GR dye were mixed was placed by 200 μL per well. After 20-minute reaction at room temperature, […] was measured between […] to calculate cell viability. A measured value of a well untreated with the drug was converted to 100% by reflecting cell viability to the OCR value. Concentration of a drug which inhibits the OCR value reflecting cell viability by 50% was calculated.

For the next assay, the system named is SK-MEL-28 cells. In words: Inhibitory effect of cancer cell proliferation, MTT. The format is cell-based. The following applies: Homo sapiens. The method, then: The compounds prepared in the above Examples were evaluated for the inhibitory effect of cancer cell proliferation according to the method described in the following Test Example.
SK-MEL-28 cells derived from human melanoma were used, and the concentration (cell growth inhibitory concentration, IC50) at which cell growth was inhibited to 50% was measured using MTT reagent (3-(4,5-dimethylthiazole-2-yl)-2,5-[…] bromide) to confirm the inhibitory effect of cancer cell proliferation of the drugs synthesized in Examples 1 to 84.
First, SK-MEL-28 cells were cultured in 96-well plates at a cell number of about 1,250 in RPMI-1640 medium containing 11.1 mM glucose and 10% calf blood serum or 0.75 mM glucose and 10% calf blood serum, and were cultured for 16 hours. […] After treatment of the compound, MTT was added to the culture medium to confirm living cells and further cultured for 2 hours. The resulting formazane crystal was dissolved using dimethyl sulfoxide, and the absorbance of the solution was measured at 555 nm. After culturing for 72 hours, the number of viable cells in the well plate treated with the compounds synthesized in the Examples relative to the number of cells cultured in the well plate without treatment of the compounds was expressed as cell viability (%) according to each treatment concentration. By using this, a cell viability curve graph was prepared, and the inhibitory effect of cancer cell proliferation was confirmed by calculating the concentration of the compound whose growth was inhibited to 50% (IC50).

Setting [2] is: A549 cells, 24 h drug treatment, OCR value reflecting cell viability.
[3] abbreviates: SK-MEL-28, 72 h, read-out: SK-MEL-28 0.75 mM glucose Cell viability (IC50 μM).
Where [4] appears, read: SK-MEL-28, 72 h, read-out: SK-MEL-28 11.1 mM glucose Cell viability (IC50 μM).
Where [5] appears, read: SK-MEL-28, 0.75 mM glucose, 72 hours, MTT, read-out: SK-MEL-28 0.75 mM glucose Cell viability (IC50 μM).
The mark [6] stands for this setting: SK-MEL-28, 11.1 mM glucose, 72 hours, MTT, read-out: SK-MEL-28 11.1 mM glucose Cell viability (IC50 μM).

Consider `COc1ccc2cc3[n+](cc2c1OC)CCc1cc2c(cc1-3)OCO2` [Berberine, reference compound], for which the IC50 (commonly the point on the concentration scale where inhibition reaches its midpoint) in assay [1] (setting [2]) was determined as 4.6 µM.
In the case of `Nc1cc[n+](CCc2ccccc2)cc1` [Example 1, 4-Amino-1-phenethylpyridinium chloride], the half-inhibitory concentration (IC50) in the assay on SK-MEL-28 cells (setting [3]) stood at 17.9 µM; in the assay on SK-MEL-28 cells (setting [4]), 163 µM; in assay [1] (A549, 24 h), 1.1 µM.
For `Nc1cc[n+](CCc2ccccc2)c(Br)c1` [Example 7, 4-Amino-2-bromo-1-phenethylpyridinium chloride], the results for the IC50 (in the assay on SK-MEL-28 cells (setting [5]); in the assay on SK-MEL-28 cells (setting [6]); in assay [1] (setting [2])) were 20.7 µM, 16.8 µM and 0.4 µM, respectively.
As for `Nc1cc[n+](CCc2ccccc2)c(N)c1` [Example 8, 2,4-Diamino-1-phenethylpyridinium bromide], the 50% inhibitory concentration (IC50) in the assay on SK-MEL-28 cells (setting [5]) was 4.7 µM; in the assay on SK-MEL-28 cells (setting [6]) it was 75.1 µM; in assay [1] (setting [2]), 1.2 µM.
Taken in the same sequence, the figures for `Nc1cc[n+](CCc2ccccc2Cl)cc1` [Example 11, 4-Amino-1-(2-chlorophenethyl)pyridinium chloride] were 11.9 µM, 38.5 µM and 0.7 µM.
Taken in the same sequence, the figures for `Nc1cc[n+](CCc2ccccc2Cl)c(N)c1` [Example 12, 2,4-Diamino-1-(2-chlorophenethyl)pyridinium bromide] were 12.8 µM, 55.5 µM and 0.8 µM.
Regarding `c1ccc(CC[n+]2ccsc2)cc1` [Example 13, 3-Phenethylthiazol-3-ium iodide], the IC50 with SK-MEL-28 cells (setting [5]) is 129 µM; in the assay with SK-MEL-28 cells (setting [6]), 320 µM; in assay [1] (setting [2]), 16.5 µM.
As for `Nc1scc[n+]1CCc1ccccc1` [Example 14, 2-Amino-3-phenethylthiazol-3-ium iodide], the IC50 in the assay on SK-MEL-28 cells (setting [5]) is 154 µM; in the assay with SK-MEL-28 cells (setting [6]), 277 µM.
Turning to `Nc1cc[n+](CCc2ccccc2)c(C2CC2)c1` [Example 15, 4-amino-2-cyclopropyl-1-phenethylpyridinium iodide], the figures for the IC50 (in the assay with SK-MEL-28 cells (setting [5]); with SK-MEL-28 cells (setting [6]); in assay [1] (setting [2])) were 6.8 µM, 47 µM and 2.3 µM, respectively.
For the compound `Nc1cc[n+](CCc2ccccc2)c2ccccc12` [Example 16, 4-Amino-1-phenethylquinolinium iodide], the IC50 in the assay on SK-MEL-28 cells (setting [5]) worked out at 8 µM; with SK-MEL-28 cells (setting [6]), 28.2 µM; in assay [1] (setting [2]) it was 1.5 µM.
The corresponding values for `CN(C)c1cc[n+](CCc2ccccc2)cc1` [Example 17, 4-(Dimethylamino)-1-phenethylpyridinium chloride] are 6.9 µM, 75.4 µM and 4.2 µM.
The corresponding values for `Nc1cc[n+](CCc2ccccc2)c(F)c1` [Example 18, 4-amino-2-fluoro-1-phenethylpyridinium chloride] are 10.7 µM, 16.9 µM and 0.6 µM.
In the case of `Nc1cc[n+](CCc2ccc(Cl)c(Cl)c2)cc1` [Example 19, 4-Amino-1-(3,4-dichlorophenethyl)pyridinium chloride], the IC50 in the assay on SK-MEL-28 cells (setting [5]) stood at 5.9 µM; in the assay on SK-MEL-28 cells (setting [6]), 8.8 µM; in assay [1] (setting [2]) it was 0.5 µM.
For the compound `FC1(F)CCN(c2cc[n+](Cc3ccccc3)cc2)CC1` [Example 65, 1-benzyl-4-(4,4-difluoropiperidin-1-yl)pyridinium chloride], the values for the IC50 in the assay on SK-MEL-28 cells (setting [5]) and in the assay on SK-MEL-28 cells (setting [6]) were 28.6 µM and 215 µM, respectively.
Regarding `c1ccc(C[n+]2ccc(NC3COC3)cc2)cc1` [Example 67, 1-Benzyl-4-(oxetan-3-ylamino)pyridinium chloride], the results for the 50% inhibitory concentration (IC50) with SK-MEL-28 cells (setting [5]) and in the assay with SK-MEL-28 cells (setting [6]) were 131 µM and 545 µM, respectively.
For the compound `CC(C)(C)Nc1cc[n+](Cc2ccccc2)cc1` [Example 69, 1-benzyl-4-(tert-butylamino)pyridinium chloride], the IC50 came out at 14.6 µM in the assay with SK-MEL-28 cells (setting [5]) and 132 µM in the assay on SK-MEL-28 cells (setting [6]).
In the case of `Nc1cc[n+](CC2CC2)cn1` [Example 73, 4-Amino-1-(cyclopropylmethyl)pyrimidin-1-ium chloride], the IC50 in the assay on SK-MEL-28 cells (setting [5]) is 169 µM; with SK-MEL-28 cells (setting [6]) it was 358 µM.
In the case of `Nc1cc[n+](Cc2ccc[se]2)cn1` [Example 74, 4-Amino-1-(selenophen-2-ylmethyl)pyrimidin-1-ium chloride], the concentration for half-maximal inhibition (IC50) in the assay on SK-MEL-28 cells (setting [3]) is 74.4 µM; in the assay on SK-MEL-28 cells (setting [4]), 243 µM.

For the origin of these results see patent publication US20170305861A1, “HETEROARYL COMPOUNDS COMPRISING NITROGEN AND USE THEREOF” (ImmunoMet Therapeutics, Inc, priority 2016, published 2017).
